In patent US7482374B2, “Pyrrolidine-2-ones as Factor Xa inhibitors” (Glaxo Group Limited, priority 2003, dated 2009):
pKi: −log10 of the molar value. Where a name gives a salt, the structure may show the parent alone.

What follows are molecules tested against T1, human Factor Xa (Homo sapiens, UniProt P00742) (assay: In vitro assay for inhibition of Factor Xa (fluorogenic assay, Rhodamine 110 bis-CBZ-glycylglycyl-L-arginine amide substrate)). Conditions: Ki = IC50/1.6; 15 min preincubation, substrate 10 μM, room temperature, pH 7.4.
T1 construct: containing human Factor Xa (final conc. Of 0.0003 U·ml−1)
T1 sequence (P00742 235-488 limits assumed): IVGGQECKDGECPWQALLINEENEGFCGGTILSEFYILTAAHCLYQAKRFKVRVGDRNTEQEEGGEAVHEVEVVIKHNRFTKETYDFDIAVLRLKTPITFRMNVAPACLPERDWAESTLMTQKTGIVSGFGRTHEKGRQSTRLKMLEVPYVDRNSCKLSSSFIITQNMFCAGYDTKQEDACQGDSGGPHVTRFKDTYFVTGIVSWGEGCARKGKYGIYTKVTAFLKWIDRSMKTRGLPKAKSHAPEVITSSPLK
T1 sequence (P00742 41-179 partner limits assumed): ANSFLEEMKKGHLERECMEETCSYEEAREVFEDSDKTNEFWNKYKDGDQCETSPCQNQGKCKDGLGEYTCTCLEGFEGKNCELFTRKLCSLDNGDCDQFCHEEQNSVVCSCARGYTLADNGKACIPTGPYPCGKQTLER
Assay type: biochemical
Protocol: In Vitro Assay for Inhibition of Factor Xa
Compounds of the present invention were tested for their Factor Xa inhibitory activity as determined in vitro by their ability to inhibit human Factor Xa in a fluorogenic assay, using Rhodamine 110, bis-CBZ-glycylglycyl-L-arginine amide as the fluorogenic substrate. Compounds were diluted from a 10 mM stock solution in dimethylsulfoxide at appropriate concentrations. Assay was performed at room temperature using buffer consisting of: 50 mM Tris-HCl, 150 mM NaCl, 5 mM CaCl2, pH 7.4. containing human Factor Xa (final conc. Of 0.0003 U·ml−1). Compound and enzyme were preincubated for 15 min prior to addition of the substrate (final conc. of 10 μM). The reaction was stopped after 3 hrs with the addition of H-D-Phe-Pro-Arg-Chloromethylketone. An LJL-Analyst fluorimeter was used to monitor fluorescence with 485 nm excitation/535 nm emission. To obtain IC50 values the data were analysed using ActivityBase® and XLfit®.
Calculation of Ki Values: Ki=IC50/(1+[Substrate]/Km)
The Ki value for the above assay can be obtained by dividing the IC50 value by 1.6.

pKi, > 8.00:
C/C(=C\S(=O)(=O)NC1CCN(c2ccc(-n3ccnc3CN3CCC3)cc2F)C1=O)c1ccc(Cl)s1 (centres unmarked) [Example 1, (1E)-N-(1-{4-[2-(1-Azetidinylmethyl)-1H-imidazol-1-yl]-2-fluorophenyl}-2-oxo-3-pyrrolidinyl)-2-(5-chloro-thienyl)-1-propene-1-sulfonamide formate]
O=C1C(NS(=O)(=O)CCc2ccc(Cl)s2)CCN1c1ccc(-n2ccnc2CN2CCC2)cc1F (centres unmarked) [Example 2, N-(1-{4-[2-(1-Azetidinylmethyl)-1H-imidazol-1-yl]-2-fluorophenyl}-2-oxo-3-pyrrolidinyl)-2-(5-chloro-2-thienyl)ethanesulfonamide formate]
C/C(=C\S(=O)(=O)NC1CCN(c2ccc(-n3ccnc3CN3CCC(F)C3)cc2F)C1=O)c1ccc(Cl)s1 (centres unmarked) [Example 5, (1E)-2-(5-Chloro-2-thienyl)-N-[1-(2-fluoro-4-{2-[(3-fluoro-1-pyrrolidinyl)methyl]-1H-imidazol-1-yl}phenyl)-2-oxo-3-pyrrolidinyl]-1-propene-1-sulfonamide formate]
COC1CN(Cc2nccn2-c2ccc(N3CCC(NS(=O)(=O)c4cc5ccc(Cl)cc5s4)C3=O)c(F)c2)C1 (centres unmarked) [Example 7, 6-Chloro-N-{1-[2-fluoro-4-(2-{[3-(methyloxy)-1-azetidinyl]methyl}-1H-imidazol-1-yl)phenyl]-2-oxo-3-pyrrolidinyl}-1-benzothiophene-2-sulfonamide formate]
O=C1C(NS(=O)(=O)c2cc3ccc(Cl)cc3s2)CCN1c1ccc(-n2ccnc2CN2CCC(F)C2)cc1F (centres unmarked) [Example 6, 6-Chloro-N-[1-(2-fluoro-4-{2-[(3-fluoro-1-pyrrolidinyl)methyl]-1H-imidazol-1-yl}phenyl)-2-oxo-3-pyrrolidinyl]-1-benzothiophene-2-sulfonamide formate]
